In US20230329236A1, “HERBICIDAL PYRIMIDINE DERIVATIVES” (MoA Technology Limited, priority 2020, published 2023) one finds pest or weed control data, which are given here for 15 compounds.

What is called pest or weed control is how far the test organism was held down. Read a low pest or weed control as weak suppression.

The subject of one assay is Lolium multiflorum (LOLMU). In words: Post-emergence glasshouse test, visual injury, LOLMU. Format: in vivo. As to conditions: 336 h, Table 3, post-emergence, 62 g/ha, 14±1 days post application. On the procedure:
(§1) Seeds of a variety of test species are grown in a sandy loam soil mixture, Lolium multiflorum (LOLMU), Amaranthus retroflexus (AMARE), Echinochloa crus-gaffi (ECHCG), Veronica persica (VERPE), Glycine max (GLXMA), Oryza sativa (ORYSA), Zea mays (ZEAMX), spring wheat (TRZAS), Ipomoea hederacea (IPOHE), Ipomoea purpurea (PHBPU), Stellaria media (STEME), Solanum nigrum (SOLNI), Digitaria sanguinalis (DIGSA), Setaria italica (SETIT), Alopecurus myosuroides (ALOMY) and Avena fatua (AVEFA).
(§2) After sowing, at growth stage BBCH 12-14 (post-emergence), the plants are sprayed with an aqueous spray solution derived from the formulation of the technical active ingredient in acetone/water (50:50) solution containing 0.5% Tween 20 (polyoxyethlyene sorbitan monolaureate, CAS RN 9005-64-5). The test compounds are applied at the required concentration of active ingredient in g/ha. The test plants are then grown in a glasshouse under controlled environmental conditions and watered regularly as required. After 14±1 days post application (for post-emergence test), the test is evaluated by assessing the percentage damage caused to the plants in comparison with the untreated plots. The biological activities for post-emergence testing are shown below (Table 3 and Table 4) as a % visual injury.
`Cc1cc(-c2cnc(NCc3ccccc3C)nc2C(C)C)on1` [Compound 98] had a pest or weed control at 62 g/ha of 0%.

For `Cc1cc(-c2cnc(NCc3ccccc3)nc2C(C)C)on1` [Compound 94], the pest or weed control at 62 g/ha amounted to 10%.

With `Cc1cc(-c2cnc(NCc3ccc(Cl)cc3)nc2C(C)C)on1` [Compound 102], the pest or weed control at 62 g/ha is 20%.

The assay is the same for the next values; noted with them: 336 h, Table 3, post-emergence, 125 g/ha, 14±1 days post application.
`Cc1cc(-c2cnc(NC(C)C)nc2C(C)C)on1` [Compound 83] had a pest or weed control at 125 g/ha of 40%.

`CCc1nc(NC2CCCC2)ncc1-c1cc(C)no1` [Compound 103] came in with a pest or weed control at 125 g/ha of 20%.

The compound `Cc1cc(-c2cnc(NCc3ccc(F)cc3)nc2C(F)(F)F)on1` [Compound 127] registered a pest or weed control at 125 g/ha of 0%.

`Cc1cc(-c2cnc(NC3CCCC3)nc2C(F)F)on1` [Compound 119] displayed a pest or weed control at 125 g/ha of 0%.

Take `Cc1cc(-c2cnc(NCc3cccc(Cl)c3)nc2C(C)C)on1` [Compound 117]: the pest or weed control at 125 g/ha worked out at 30%.

For `Cc1cc(-c2cnc(NCC3CCOCC3)nc2C(C)C)on1` [Compound 109], the pest or weed control at 125 g/ha was 0%.

`Cc1cc(-c2cnc(NC3CCCCC3)nc2C(F)(F)F)on1` [Compound 125] yielded a pest or weed control at 125 g/ha of 20%.

In turn, `Cc1cc(-c2cnc(NCc3ccc(Cl)cc3)nc2C(C)C)on1` [Compound 102] had a pest or weed control at 125 g/ha of 40%.

Regarding `Cc1cc(-c2cnc(NCc3cccnc3)nc2C(F)(F)F)on1` [Compound 111], the pest or weed control at 125 g/ha was determined as 10%.

Regarding `Cc1cc(-c2cnc(NCc3ccc(F)cc3)nc2C2CCC2)on1` [Compound 105], the pest or weed control at 125 g/ha was 0%.

The same assay, now with this note: 336 h, Table 3, post-emergence, 250 g/ha, 14±1 days post application.
In turn, `Cc1cc(-c2cnc(NC(C)C)nc2C(C)C)on1` [Compound 83] showed a pest or weed control at 250 g/ha of 50%.

The compound `Cc1cc(-c2cnc(NC3CCC3)nc2C2CC2)on1` [Compound 12] showed a pest or weed control at 250 g/ha of 30%.

`Cc1cc(-c2cnc(N(C)C)nc2C(C)C)on1` [Compound 82] came in with a pest or weed control at 250 g/ha of 30%.

The same assay, now with this note: 336 h, Table 3, post-emergence, 500 g/ha, 14±1 days post application.
On to `Cc1cc(-c2cnc(NCCn3nccc3C)nc2C(C)C)on1` [Compound 41], for which the pest or weed control at 500 g/ha came out at 30%.

The next assay deals with Amaranthus retroflexus (AMARE). In words: Post-emergence glasshouse test, visual injury, AMARE. Format: in vivo. As to conditions: 336 h, Table 3, post-emergence, 62 g/ha, 14±1 days post application. As to the method:
as §1, §2
`Cc1cc(-c2cnc(NCc3ccccc3C)nc2C(C)C)on1` [Compound 98] came in with a pest or weed control at 62 g/ha of 60%.

`Cc1cc(-c2cnc(NCc3ccccc3)nc2C(C)C)on1` [Compound 94] registered a pest or weed control at 62 g/ha of 60%.

The compound `Cc1cc(-c2cnc(NCc3ccc(Cl)cc3)nc2C(C)C)on1` [Compound 102] had a pest or weed control at 62 g/ha of 98%.

The same assay, now with this note: 336 h, Table 3, post-emergence, 125 g/ha, 14±1 days post application.
In turn, `Cc1cc(-c2cnc(NC(C)C)nc2C(C)C)on1` [Compound 83] displayed a pest or weed control at 125 g/ha of 95%.

`CCc1nc(NC2CCCC2)ncc1-c1cc(C)no1` [Compound 103]: the pest or weed control at 125 g/ha stood at 70%.

In turn, `Cc1cc(-c2cnc(NCc3ccc(F)cc3)nc2C(F)(F)F)on1` [Compound 127] registered a pest or weed control at 125 g/ha of 100%.

Compound `Cc1cc(-c2cnc(NC3CCCC3)nc2C(F)F)on1` [Compound 119] had a pest or weed control at 125 g/ha of 50%.

`Cc1cc(-c2cnc(NCc3cccc(Cl)c3)nc2C(C)C)on1` [Compound 117] showed a pest or weed control at 125 g/ha of 70%.

Compound `Cc1cc(-c2cnc(NCC3CCOCC3)nc2C(C)C)on1` [Compound 109] returned a pest or weed control at 125 g/ha of 40%.

The compound `Cc1cc(-c2cnc(NC3CCCCC3)nc2C(F)(F)F)on1` [Compound 125] had a pest or weed control at 125 g/ha of 70%.

`Cc1cc(-c2cnc(NCc3ccc(Cl)cc3)nc2C(C)C)on1` [Compound 102] came in with a pest or weed control at 125 g/ha of 100%.

For the compound `Cc1cc(-c2cnc(NCc3cccnc3)nc2C(F)(F)F)on1` [Compound 111], the pest or weed control at 125 g/ha came out at 0%.

Consider `Cc1cc(-c2cnc(NCc3ccc(F)cc3)nc2C2CCC2)on1` [Compound 105], for which the pest or weed control at 125 g/ha amounted to 30%.

Staying with this assay, now noted: 336 h, Table 3, post-emergence, 250 g/ha, 14±1 days post application.
For `Cc1cc(-c2cnc(NC(C)C)nc2C(C)C)on1` [Compound 83], the pest or weed control at 250 g/ha was found to be 98%.

`Cc1cc(-c2cnc(NC3CCC3)nc2C2CC2)on1` [Compound 12] had a pest or weed control at 250 g/ha of 100%.

In the case of `Cc1cc(-c2cnc(N(C)C)nc2C(C)C)on1` [Compound 82], the pest or weed control at 250 g/ha was found to be 0%.

Still in this assay, the particulars now being: 336 h, Table 3, post-emergence, 500 g/ha, 14±1 days post application.
`Cc1cc(-c2cnc(NCCn3nccc3C)nc2C(C)C)on1` [Compound 41] returned a pest or weed control at 500 g/ha of 95%.

In a further assay the test system is Echinochloa crus-gaffi (ECHCG). Briefly: Post-emergence glasshouse test, visual injury, ECHCG. Format: in vivo, Echinochloa crus-galli. The following applies: 336 h, Table 3, post-emergence, 62 g/ha, 14±1 days post application. On the procedure: as §1, §2
`Cc1cc(-c2cnc(NCc3ccccc3C)nc2C(C)C)on1` [Compound 98] displayed a pest or weed control at 62 g/ha of 70%.

Turning to `Cc1cc(-c2cnc(NCc3ccccc3)nc2C(C)C)on1` [Compound 94], the pest or weed control at 62 g/ha was 80%.

Turning to `Cc1cc(-c2cnc(NCc3ccc(Cl)cc3)nc2C(C)C)on1` [Compound 102], the pest or weed control at 62 g/ha came to 80%.

The same assay, now with this note: 336 h, Table 3, post-emergence, 125 g/ha, 14±1 days post application.
`Cc1cc(-c2cnc(NC(C)C)nc2C(C)C)on1` [Compound 83] showed a pest or weed control at 125 g/ha of 70%.

On to `CCc1nc(NC2CCCC2)ncc1-c1cc(C)no1` [Compound 103], for which the pest or weed control at 125 g/ha stood at 30%.

`Cc1cc(-c2cnc(NCc3ccc(F)cc3)nc2C(F)(F)F)on1` [Compound 127] registered a pest or weed control at 125 g/ha of 60%.

Regarding `Cc1cc(-c2cnc(NC3CCCC3)nc2C(F)F)on1` [Compound 119], the pest or weed control at 125 g/ha is 0%.

`Cc1cc(-c2cnc(NCc3cccc(Cl)c3)nc2C(C)C)on1` [Compound 117] gave a pest or weed control at 125 g/ha of 70%.

Regarding `Cc1cc(-c2cnc(NCC3CCOCC3)nc2C(C)C)on1` [Compound 109], the pest or weed control at 125 g/ha stood at 0%.

Take `Cc1cc(-c2cnc(NC3CCCCC3)nc2C(F)(F)F)on1` [Compound 125]: the pest or weed control at 125 g/ha came to 50%.

Regarding `Cc1cc(-c2cnc(NCc3ccc(Cl)cc3)nc2C(C)C)on1` [Compound 102], the pest or weed control at 125 g/ha is 80%.

`Cc1cc(-c2cnc(NCc3cccnc3)nc2C(F)(F)F)on1` [Compound 111] yielded a pest or weed control at 125 g/ha of 0%.

For `Cc1cc(-c2cnc(NCc3ccc(F)cc3)nc2C2CCC2)on1` [Compound 105], the pest or weed control at 125 g/ha is 0%.

The same assay, now with this note: 336 h, Table 3, post-emergence, 250 g/ha, 14±1 days post application.
Consider `Cc1cc(-c2cnc(NC(C)C)nc2C(C)C)on1` [Compound 83], for which the pest or weed control at 250 g/ha turned out to be 100%.

As to `Cc1cc(-c2cnc(NC3CCC3)nc2C2CC2)on1` [Compound 12], the pest or weed control at 250 g/ha came out at 90%.

For `Cc1cc(-c2cnc(N(C)C)nc2C(C)C)on1` [Compound 82], the pest or weed control at 250 g/ha was determined as 70%.

Still in this assay, the particulars now being: 336 h, Table 3, post-emergence, 500 g/ha, 14±1 days post application.
`Cc1cc(-c2cnc(NCCn3nccc3C)nc2C(C)C)on1` [Compound 41] had a pest or weed control at 500 g/ha of 60%.

Another assay has as its system Veronica persica (VERPE). In words: Post-emergence glasshouse test, visual injury, VERPE. Format: in vivo. The following applies: 336 h, Table 3, post-emergence, 62 g/ha, 14±1 days post application. On the procedure:
as §1, §2
Regarding `Cc1cc(-c2cnc(NCc3ccccc3C)nc2C(C)C)on1` [Compound 98], the pest or weed control at 62 g/ha was 80%.

With `Cc1cc(-c2cnc(NCc3ccccc3)nc2C(C)C)on1` [Compound 94], the pest or weed control at 62 g/ha worked out at 0%.

Regarding `Cc1cc(-c2cnc(NCc3ccc(Cl)cc3)nc2C(C)C)on1` [Compound 102], the pest or weed control at 62 g/ha was determined as 80%.

The same assay, now with this note: 336 h, Table 3, post-emergence, 125 g/ha, 14±1 days post application.
`Cc1cc(-c2cnc(NC(C)C)nc2C(C)C)on1` [Compound 83] showed a pest or weed control at 125 g/ha of 70%.

Compound `CCc1nc(NC2CCCC2)ncc1-c1cc(C)no1` [Compound 103] returned a pest or weed control at 125 g/ha of 60%.

Compound `Cc1cc(-c2cnc(NCc3ccc(F)cc3)nc2C(F)(F)F)on1` [Compound 127] displayed a pest or weed control at 125 g/ha of 98%.

For `Cc1cc(-c2cnc(NC3CCCC3)nc2C(F)F)on1` [Compound 119], the pest or weed control at 125 g/ha worked out at 0%.

As for `Cc1cc(-c2cnc(NCc3cccc(Cl)c3)nc2C(C)C)on1` [Compound 117], the pest or weed control at 125 g/ha is 70%.

In turn, `Cc1cc(-c2cnc(NCC3CCOCC3)nc2C(C)C)on1` [Compound 109] gave a pest or weed control at 125 g/ha of 70%.

Consider `Cc1cc(-c2cnc(NC3CCCCC3)nc2C(F)(F)F)on1` [Compound 125], for which the pest or weed control at 125 g/ha turned out to be 0%.

The compound `Cc1cc(-c2cnc(NCc3ccc(Cl)cc3)nc2C(C)C)on1` [Compound 102] registered a pest or weed control at 125 g/ha of 100%.

Take `Cc1cc(-c2cnc(NCc3cccnc3)nc2C(F)(F)F)on1` [Compound 111]: the pest or weed control at 125 g/ha is 0%.

`Cc1cc(-c2cnc(NCc3ccc(F)cc3)nc2C2CCC2)on1` [Compound 105] returned a pest or weed control at 125 g/ha of 50%.

Staying with this assay, now noted: 336 h, Table 3, post-emergence, 250 g/ha, 14±1 days post application.
In turn, `Cc1cc(-c2cnc(NC(C)C)nc2C(C)C)on1` [Compound 83] came in with a pest or weed control at 250 g/ha of 100%.

Compound `Cc1cc(-c2cnc(NC3CCC3)nc2C2CC2)on1` [Compound 12] had a pest or weed control at 250 g/ha of 100%.

Consider `Cc1cc(-c2cnc(N(C)C)nc2C(C)C)on1` [Compound 82], for which the pest or weed control at 250 g/ha was 20%.

Staying with this assay, now noted: 336 h, Table 3, post-emergence, 500 g/ha, 14±1 days post application.
`Cc1cc(-c2cnc(NCCn3nccc3C)nc2C(C)C)on1` [Compound 41]: the pest or weed control at 500 g/ha was found to be 50%.
